One assay relates to Monilinia fructigena. Briefly: Antifungal activity against Monilinia fructigena. The class given is functional, organism-based.
For another assay, the system named is Bipolaris oryzae. The assay is described as follows: Antifungal activity against Cochliobolus miyabeanus at 50 ug/ml. Type of assay: functional, organism-based.

The source made the active and inactive calls. The rule behind the calls is not given here.

For `Cc1cc2c(=O)oc3c(O)cccc3c2oc1=O`, the result with Monilinia fructigena was inactive. For the same compound, the result in the assay on Bipolaris oryzae was Active.
